Assay results reported in patent US20050048067A1, “Peptides capable of modulating immune response” (priority 2001, published 2005).
Read-outs that look alike come from different tables or passages of the source.

B1: TIRC7 protein: in vitro translated T-cell immune response cDNA 7 (TIRC7) protein (protein, UniProt Q13488 1-830, looked up)
V-type proton ATPase 116 kDa …: MGSMFRSEEVALVQLFLPTAAAYTCVSRLGELGLVEFRDLNASVSAFQRRFVVDVRRCEELEKTFTFLQEEVRRAGLVLPPPKGRLPAPPPRDLLRIQEETERLAQELRDVRGNQQALRAQLHQLQLHAAVLRQGHEPQLAAAHTDGASERTPLLQAPGGPHQDLRVNFVAGAVEPHKAPALERLLWRACRGFLIASFRELEQPLEHPVTGEPATWMTFLISYWGEQIGQKIRKITDCFHCHVFPFLQQEEARLGALQQLQQQSQELQEVLGETERFLSQVLGRVLQLLPPGQVQVHKMKAVYLALNQCSVSTTHKCLIAEAWCSVRDLPALQEALRDSSMEEGVSAVAHRIPCRDMPPTLIRTNRFTASFQGIVDAYGVGRYQEVNPAPYTIITFPFLFAVMFGDVGHGLLMFLFALAMVLAENRPAVKAAQNEIWQTFFRGRYLLLLMGLFSIYTGFIYNECFSRATSIFPSGWSVAAMANQSGWSDAFLAQHTMLTLDPNVTGVFLGPYPFGIDPIWSLAANHLSFLNSFKMKMSVILGVVHMAFGVVLGVFNHVHFGQRHRLLLETLPELTFLLGLFGYLVFLVIYKWLCVWAARAASAPSILIHFINMFLFSHSPSNRLLYPRQEVVQATLVVLALAMVPILLLGTPLHLLHRHRRRLRRRPADRQEENKAGLLDLPDASVNGWSSDEEKAGGLDDEEEAELVPSEVLMHQAIHTIEFCLGCVSNTASYLRLWALSLAHAQLSEVLWAMVMRIGLGLGREVGVAAVVLVPIFAAFAVMTVAILLVMEGLSAFLHALRLHWVEFQNKFYSGTGYKLSPFTFAATDD
modifications: in vitro translated
notes: in vitro translated T-cell immune response cDNA 7 (TIRC7) protein

Key:
PHA-stimulated PBMC = test: Radioactive proliferation assay, incorporation of 3H-thymidine, TIRC7-peptides; format: cell-based, human; settings: PHA stimulation, 48 h, 3H-thymidine incorporation
Experimental: PBMC of healthy donors were isolated according to the Ficoll-Paque density centrifugation protocol. Samples of 50000 PBMC's/well were stimulated with PHA (1 μg/ml) and incubated for 48 h at 5% CO2, 37° C. in presence of TIRC7-peptides (see FIG. 4(B)) and controls (BSA) in a total volume of […]. Samples were run in triplicates on 96 well-microtiter-plates (MTP's). After 48 h 0.5 μCi ^3H-thymidine per well were added and the cells were reincubated for additional 18 h. Cells were harvested and lysed using a cell harvester and collected on nitrocellulose-filter-MTP's. Plates were dried at room temperature for 3 h. To enhance the radioactive signal produced by the samples a scintillation fluid was added and counts per minute were measured with a beta counter.

activated T-cells = settings: alloactivation in mixed lymphocyte culture (MLR) or mitogens, Utku et al., Immunity 1998, cited from earlier work

| Molecule | inhibition of proliferation of PHA-stimulated PBMC (PHA-stimulated PBMC; FIG. 5) | inhibition of proliferation of PHA-stimulated PBMC (PHA-stimulated PBMC; FIG. 5, listed as SEQ ID NO: 11) | suppression of proliferation of T-cells (activated T-cells) | suppression of proliferation of T-cells (activated T-cells; listed as protein TIRC7) |
| --- | --- | --- | --- | --- |
| P4: TIRC7-derived peptide (FIG. 4(B)), the one of 6 without significant inhibition of proliferation (VEFQNKFYSGTGYK; listed as Homo sapiens) | except peptide P4 all TIRC7-peptides inhibited proliferation | weaker if any activity |  |  |
| B1 |  |  | efficiently suppress in a dose dependent manner | signifincantly suppressed |
